Columns and labels:
[1] = target: T1, BpsA (Streptomyces lavendulae, UniProt Q1MWN4); assay: Relative reaction rate of L-glutamine versus analogue with BpsA; assay type: biochemical; conditions: L-glutamine faster than an analogue (e.g. L-glycyl glutamine)
Procedure: Without wishing to be bound by theory, it is believed that BpsA or a related enzyme can be used to measure both L-glutamine and a glutamine analogue (e.g., L-glycyl glutamine) in the same sample. Experiments have shown that L-glutamine reacts much faster with BpsA (˜100-1000 fold) than an analogue. Thus, it would be possible to incubate the sample for a short period (e.g., 2 minutes), remove the blue pigment, and measure the pigment levels to calculate L-glutamine levels. It would then be possible to wait for a further longer period (e.g., 8 hours), and measure the remaining blue pigment to calculate analogue levels (e.g., L-glycyl glutamine). It is expected that there would be little contamination of the glutamine-based product by the analogue-based product based on the enzymatic profile for BpsA.

[2] = target: T1, BpsA; assay: BpsA end-point assay measuring L-glutamine in complex biological media (indigoidine re-solubilised in DMSO, A590); conditions: for Spiked − unspiked (μM L-glutamine +/− 1 std dev): 300 μM spike
Procedure: For improved accuracy, reproducibility, and robustness, it is generally preferable to use an end-point assay over a kinetic assay. An end-point assay for BpsA was designed and carried out as follows. In these experiments, 40 μL indigoidine-producing reactions were run until all glutamine present was consumed, and then all the indigoidine was solubilised by adding 190 μL of the organosulfur solvent dimethyl sulfoxide (DMSO).
Indigoidine synthesis reactions were initiated by addition of 10 μL of each L-glutamine concentration standard in triplicate. […] The 96 plate was then mixed at 1000 rpm for 10 seconds and incubated at room temperature for 45 minutes to enable complete reaction of all L-glutamine present in each well. After this, 190 μL of DMSO heated to 50° C. was added to each well to solubilise the indigoidine. The 96 well plate was then incubated at room temperature with shaking at 2500 rpm for 10 minutes. […] This yielded a standard curve with an excellent straight line fit (FIG. 4).
For these experiments, standard samples (10 μL per well) were prepared in triplicate in ddH2O as per Example 4 at the following concentrations: 1000 μM, 800 μM, 600 μM, 400 μM, 200 μM, and 0 μM. Alongside these were aliquoted paired triplicate samples (10 μL per well) of the following media: adult bovine serum (purchased from Sigma-Aldrich), human urine, LB, DMEM, and ddH2O. For each medium, one of the two paired triplicate sets was spiked (amended) with 300 μM L-glutamine, while the other was left unspiked. Indigoidine synthesis was initiated by addition of 30 μL reaction mix (as described in Table 4) to each sample-containing well. The 96 well plate was then mixed at 1000 rpm for 10 seconds and incubated at room temperature for one hour, after which 180 μL of DMSO heated to 50° C. was added to each well. The plate was then shaken at 2500 rpm for 10 minutes to fully solubilise the indigoidine.
It was observed that the serum containing wells went immediately cloudy upon addition of DMSO, preventing meaningful A590 readings from being obtained for those samples. In all other cases, a single A590 reading for each well was recorded. For each sample, triplicate A590 values were averaged and this value was used to quantify glutamine levels based on the standard curve generated from the standard samples. With the exception of the ddH2O, it was unknown what the starting concentration of L-glutamine was in each medium being tested. However, the comparison of measured L-glutamine levels in spiked versus unspiked samples for each medium enabled assessment of the accuracy of the BpsA end-point assay in measuring L-glutamine concentrations in that medium.

T1 sequence (Q1MWN4 whole entry): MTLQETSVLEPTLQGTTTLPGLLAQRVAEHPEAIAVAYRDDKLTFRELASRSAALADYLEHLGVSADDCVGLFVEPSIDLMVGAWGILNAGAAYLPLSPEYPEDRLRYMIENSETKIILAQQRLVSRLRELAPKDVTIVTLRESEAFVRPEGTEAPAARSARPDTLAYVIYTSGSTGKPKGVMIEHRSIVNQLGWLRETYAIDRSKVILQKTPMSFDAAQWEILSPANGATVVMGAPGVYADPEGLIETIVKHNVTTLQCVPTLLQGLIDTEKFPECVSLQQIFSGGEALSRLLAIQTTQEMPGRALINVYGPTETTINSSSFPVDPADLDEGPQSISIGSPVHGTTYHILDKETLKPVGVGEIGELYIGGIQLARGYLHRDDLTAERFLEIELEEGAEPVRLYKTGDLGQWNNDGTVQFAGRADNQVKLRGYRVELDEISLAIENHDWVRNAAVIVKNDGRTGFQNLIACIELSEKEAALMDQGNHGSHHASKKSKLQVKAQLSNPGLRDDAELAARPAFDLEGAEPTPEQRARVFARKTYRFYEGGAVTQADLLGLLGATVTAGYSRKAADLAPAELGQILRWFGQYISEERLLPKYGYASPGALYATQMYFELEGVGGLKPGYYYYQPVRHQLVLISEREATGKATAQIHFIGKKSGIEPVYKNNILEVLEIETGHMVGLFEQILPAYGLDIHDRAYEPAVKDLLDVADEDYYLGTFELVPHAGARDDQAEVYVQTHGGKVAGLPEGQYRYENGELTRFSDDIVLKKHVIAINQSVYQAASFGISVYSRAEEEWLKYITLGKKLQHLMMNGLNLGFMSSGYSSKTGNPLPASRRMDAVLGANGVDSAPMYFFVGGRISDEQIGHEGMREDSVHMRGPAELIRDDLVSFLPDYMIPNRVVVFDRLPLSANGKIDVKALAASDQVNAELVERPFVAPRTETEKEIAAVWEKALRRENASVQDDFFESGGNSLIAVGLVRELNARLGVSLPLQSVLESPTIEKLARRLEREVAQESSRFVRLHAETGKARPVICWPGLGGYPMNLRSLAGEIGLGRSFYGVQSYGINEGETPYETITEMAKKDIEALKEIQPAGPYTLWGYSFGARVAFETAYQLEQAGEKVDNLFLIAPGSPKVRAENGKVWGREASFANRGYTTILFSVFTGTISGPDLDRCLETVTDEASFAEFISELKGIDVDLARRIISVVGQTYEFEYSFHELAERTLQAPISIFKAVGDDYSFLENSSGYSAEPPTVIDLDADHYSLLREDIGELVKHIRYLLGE

`NC(=O)CC[C@H](N)C(=O)O` [L-glutamine] was tested, and the “Reaction rate with BpsA relative to an analogue” value [1] was 100-1000 fold, the “Spiked sample measurement (μM L-glutamine +/− 1 std dev)” value ([2]; DMEM spiked with 300 μM L-glutamine, standard curve in ddH2O) was 427.4 ± 4.6 µM and the “Unspiked sample measurement (μM L-glutamine +/− 1 std dev)” value (shortened to “Unspiked sample measurement”) ([2]; DMEM) was 20.3 ± 2.7 µM. The “Spiked − unspiked (μM L-glutamine +/− 1 std dev)” value (shortened to “Spiked − unspiked”) ([2]; DMEM) was 407.0 ± 5.4 µM, the “Spiked sample measurement (μM L-glutamine +/− 1 std dev)” value ([2]; LB spiked with 300 μM L-glutamine, standard curve in ddH2O) was 377.9 ± 14.1 µM and the “Unspiked sample measurement” value ([2]; LB) was 49.6 ± 5.3 µM. For the same molecule, the “Spiked − unspiked” value ([2]; LB) was 328.1 ± 15.2 µM, the “Spiked sample measurement (μM L-glutamine +/− 1 std dev)” value ([2]; ddH2O spiked with 300 μM L-glutamine) was 319.0 ± 5.4 µM and the “Spiked − unspiked” value ([2]; ddH2O) was 319.0 ± 5.4 µM. The “Spiked sample measurement (μM L-glutamine +/− 1 std dev)” value ([2]; human urine spiked with 300 μM L-glutamine, standard curve in ddH2O) was 295.8 ± 7.1 µM, the “Unspiked sample measurement” value ([2]; human urine) was 71.4 ± 23.6 µM and the “Spiked − unspiked” value ([2]; human urine) was 224.4 ± 24.9 µM.
